# From PubChem BioAssay AID1963844 (Molecular Pharmacology Branch, DTP, NCI, 2024)
# pIC50: −log10 of the molar value. Where “and” joins values, the source holds several entries; their conditions need not be identical. Identical values can stand only once.
# Tested on: 422866-222-R5-J1-PDC complex spheroid viability
# Experiment: Anticancer human tumor 422866-222-R5-J1-PDC patient-derived pancreatic adenocarcinoma cell line growth inhibition [POLQ]
# Conditions: for viability, T/C: stronger effect = lower value
# Description: Multicellular complex tumor spheroid response to Polymerase (POL) inhibitors (novobiocin, ART-558, RP6685) in combination with a variety of drugs and investigational agents in selected tumor cell lines
# The POL inhibitors (novobiocin, ART-558, and RP6685) were evaluated both individually and in combination with standard of care and investigational anticancer small molecules within a complex spheroid model of solid tumors. . Complex spheroids include a stromal component modeled by human endothelial cells (HUVEC) and fibroblasts modeled by human mesenchymal stem cells (MSCs). The concentration ranges selected for each drug and investigational agent were based upon clinically achievable concentrations if the clinical Cmax of the agent was known.
# Compounds. The drugs and investigational agents: novobiocin (NSC847541), ART-558 (NSC835418), RP-6685 (NSC848927), peposertib (NSC802822), ceralasertib (NSC780249), elimusertib (NSC800525), camonsertib (NSC841442), AZD-1390 (NSC803789), olaparib (NSC753686), talazoparib (NSC767125), rucaparib (NSC756644), sotorasib (NSC818433), MRTX-1133 (NSC836407), SN-38 (NSC673596), topotecan (NSC609699), epotoside (NSC141540), doxorubicin (NSC123127), gemcitabine (NSC613327), 5-fluorouracil (NSC19893), paclitaxel (NSC125973), vemurafenib (NSC761431), MSA-2 (NSC828583), SN-011 (NSC837082), adavosertib (NSC754352), prexasertib (NSC758257), carboplatin (NSC241240) and oxaliplatin (NSC266046), were obtained from the National Cancer Institute (NCI) Developmental Therapeutics Program Chemical Repository (21). The FDA-approved anticancer drug set is available from the Developmental Therapeutics Program at https://dtp.cancer.gov/organization/dscb/obtaining/. […] The stock solutions were prepared in dimethyl sulfoxide (DMSO, Sigma-Aldrich, St. Louis, MO, cat. D2650), except for the platinum compounds which were prepared in saline (Quality Biological, Gaithersburg, MD, cat. 114-055-101), at 800-fold the tested concentration and stored at -70 degrees C prior to their use. All drugs and investigational agents were tested over a range starting from a high concentration at or near the clinical Cmax and decreasing in half-log increments. If the clinical Cmax for an agent had not been determined, the highest concentration tested was 10 microM, except for SN-38, which was tested at a high concentration of 1 microM.
# Cell Culture. All cells were maintained in an incubator at 37 degrees C and 5% CO2 with 95% humidity. The PDC lines were cultured according to standard operating procedures established by the NCI PDMR (https://pdmr.cancer.gov). Table 3 of the manuscript, lists the cell lines along with the number of the three cell types plated to form the mct-spheroids and media for tumor cell growth. After thawing, all PDC lines, except 997537-175-T-J1-PDC and 415267-285-R-J2-PDC, were cultured in Matrigel-coated flasks prepared with a working solution of 1X Ham's F-12 nutrient mix, without supplementation (Thermo Fisher Scientific, cat. 11765054), 100 U/mL penicillin-streptomycin (Thermo Fisher Scientific, cat. 15140122), and 2.5% Matrigel (Corning Inc., Corning, NY, cat. 354248) for the first three passages. The two PDC lines 997537-175-T-J1-PDC and 415267-285-R-J2-PDC were cultured on uncoated flasks. The 857933-349-R-J2-PDC line was cultured in 6C/Colon 1B media containing advanced DMEM/F-12 (Thermo Fisher Scientific, cat. 12634028), 10 mM HEPES (Thermo Fisher Scientific, cat. 15630080), 1X GlutaMAX supplement (Thermo Fisher Scientific, cat. 35050061), 0.1 mg/mL primocin (InvivoGen, San Diego, CA, cat. ant-pm-2), 10% defined fetal bovine serum, heat inactivated (HyClone Laboratories Inc., Logan, UT, cat. SH30070.03HI), 50% L-WRN conditioned media (ATCC, cat. CRL-3276), 1.25 mM N-Acetyl-L-cysteine (Sigma-Aldrich, cat. A9165), 10 mM nicotinamide (Sigma-Aldrich, cat. N0636), 1X B-27 supplement (Thermo Fisher Scientific, cat. 17504044), 1X N-2 supplement (Thermo Fisher Scientific, cat. […]
# [1] = curve of first compound, second compound 0.0316 µM
# [2] = curve of first compound, second compound 0.1 µM
# [3] = curve of first compound, second compound 0.316 µM
# [4] = curve of first compound, second compound 1 µM
# [5] = curve of first compound, second compound 3.16 µM
# [6] = curve of first compound, second compound 10 µM
# [7] = second compound 0.0316 µM, first compound 0.0316 µM
# [8] = second compound 0.0316 µM, first compound 0.1 µM
# [9] = second compound 0.0316 µM, first compound 0.316 µM
# [10] = second compound 0.0316 µM, first compound 1 µM
# [11] = second compound 0.0316 µM, first compound 3.16 µM
# [12] = second compound 0.0316 µM, first compound 10 µM
# [13] = second compound 0.1 µM, first compound 0.0316 µM
# [14] = second compound 0.1 µM, first compound 0.1 µM
# [15] = second compound 0.1 µM, first compound 0.316 µM
# [16] = second compound 0.1 µM, first compound 1 µM
# [17] = second compound 0.1 µM, first compound 3.16 µM
# [18] = second compound 0.1 µM, first compound 10 µM
# [19] = second compound 0.316 µM, first compound 0.0316 µM
# [20] = second compound 0.316 µM, first compound 0.1 µM
# [21] = second compound 0.316 µM, first compound 0.316 µM
# [22] = second compound 0.316 µM, first compound 1 µM
# [23] = second compound 0.316 µM, first compound 3.16 µM
# [24] = second compound 0.316 µM, first compound 10 µM
# [25] = second compound 1 µM, first compound 0.0316 µM
# [26] = second compound 1 µM, first compound 0.1 µM
# [27] = second compound 1 µM, first compound 0.316 µM
# [28] = second compound 1 µM, first compound 1 µM
# [29] = second compound 1 µM, first compound 3.16 µM
# [30] = second compound 1 µM, first compound 10 µM
# [31] = second compound 3.16 µM, first compound 0.0316 µM
# [32] = second compound 3.16 µM, first compound 0.1 µM
# [33] = second compound 3.16 µM, first compound 0.316 µM
# [34] = second compound 3.16 µM, first compound 1 µM
# [35] = second compound 3.16 µM, first compound 3.16 µM
# [36] = second compound 3.16 µM, first compound 10 µM
# [37] = second compound 10 µM, first compound 0.0316 µM
# [38] = second compound 10 µM, first compound 0.1 µM
# [39] = second compound 10 µM, first compound 0.316 µM
# [40] = second compound 10 µM, first compound 1 µM
# [41] = second compound 10 µM, first compound 3.16 µM
# [42] = second compound 10 µM, first compound 10 µM
# 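Further: spheroids exposed to compounds for one week before readout.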
# 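Wherever viability, T/C is given: percent of DMSO vehicle wells luminescence so 100% = untreated viability.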
smiles,measurement,setting,value
CCCS(=O)(=O)Nc1ccc(F)c(C(=O)c2c[nH]c3ncc(-c4ccc(Cl)cc4)cc23)c1F + Nc1ccc(C#CCN(C(=O)Cc2ncc(C(F)(F)F)cc2C(F)(F)F)c2ccc(F)cc2)nn1,pIC50,[1],< 5.00
same,pIC50,[2],< 5.00
same,pIC50,[3],< 5.00
same,pIC50,[4],< 5.00
same,pIC50,[5],< 5.00
same,pIC50,[6],< 5.00
same,"viability, T/C",[7],101%
same,"viability, T/C",[8],103%
same,"viability, T/C",[9],107%
same,"viability, T/C",[10],181%
same,"viability, T/C",[11],197%
same,"viability, T/C",[12],118%
same,"viability, T/C",[13],115%
same,"viability, T/C",[14],107%
same,"viability, T/C",[15],115%
same,"viability, T/C",[16],182%
same,"viability, T/C",[17],173%
same,"viability, T/C",[18],118%
same,"viability, T/C",[19],105%
same,"viability, T/C",[20],96.4%
same,"viability, T/C",[21],113%
same,"viability, T/C",[22],162%
same,"viability, T/C",[23],164%
same,"viability, T/C",[24],129%
same,"viability, T/C",[25],103%
same,"viability, T/C",[26],112%
same,"viability, T/C",[27],125%
same,"viability, T/C",[28],133%
same,"viability, T/C",[29],193%
same,"viability, T/C",[30],113%
same,"viability, T/C",[31],107%
same,"viability, T/C",[32],124%
same,"viability, T/C",[33],138%
same,"viability, T/C",[34],127%
same,"viability, T/C",[35],153%
same,"viability, T/C",[36],114%
same,"viability, T/C",[37],125%
same,"viability, T/C",[38],138%
same,"viability, T/C",[39],166%
same,"viability, T/C",[40],154%
same,"viability, T/C",[41],166%
same,"viability, T/C",[42],96.7%
O=c1[nH]cc(F)c(=O)[nH]1 + COC1C(OC(N)=O)C(O)C(Oc2ccc3c(O)c(NC(=O)c4ccc(O)c(CC=C(C)C)c4)c(=O)oc3c2C)OC1(C)C,pIC50,[1],< 5.00
same,pIC50,[2],< 5.00
same,pIC50,[3],< 5.00
same,pIC50,[4],< 5.00
same,pIC50,[5],< 5.00
same,pIC50,[6],< 5.00
same,"viability, T/C",[7],103%
same,"viability, T/C",[8],99.7%
same,"viability, T/C",[9],102%
same,"viability, T/C",[10],98.9%
same,"viability, T/C",[11],82.7%
same,"viability, T/C",[12],78.5%
same,"viability, T/C",[13],109%
same,"viability, T/C",[14],116%
same,"viability, T/C",[15],99.7%
same,"viability, T/C",[16],82.9%
same,"viability, T/C",[17],82.5%
same,"viability, T/C",[18],79%
same,"viability, T/C",[19],109%
same,"viability, T/C",[20],105%
same,"viability, T/C",[21],93.5%
same,"viability, T/C",[22],92.1%
same,"viability, T/C",[23],84.8%
same,"viability, T/C",[24],84%
same,"viability, T/C",[25],107%
same,"viability, T/C",[26],108%
same,"viability, T/C",[27],93.2%
same,"viability, T/C",[28],90.5%
same,"viability, T/C",[29],72.2%
same,"viability, T/C",[30],80.8%
same,"viability, T/C",[31],98%
same,"viability, T/C",[32],94.1%
same,"viability, T/C",[33],102%
same,"viability, T/C",[34],89.2%
same,"viability, T/C",[35],81.8%
same,"viability, T/C",[36],82.5%
same,"viability, T/C",[37],103%
same,"viability, T/C",[38],98%
same,"viability, T/C",[39],99.9%
same,"viability, T/C",[40],79.9%
same,"viability, T/C",[41],77.7%
same,"viability, T/C",[42],81.4%
CCCS(=O)(=O)Nc1ccc(F)c(C(=O)c2c[nH]c3ncc(-c4ccc(Cl)cc4)cc23)c1F,"viability, T/C",compound 0.0316 µM,102% and 117% and 105%
same,"viability, T/C",compound 0.1 µM,115% and 138% and 140%
same,"viability, T/C",compound 0.316 µM,130% and 119% and 128%
same,"viability, T/C",compound 1 µM,163% (2×) and 148%
same,"viability, T/C",compound 3.16 µM,194% and 210% and 192%
same,pIC50,curve of compound,< 5.00
